± gives the standard deviation of the reports.
Q: With `*Oc1ccc(CC(NC(=O)Cc2ccc(OC(=O)CCC(*)=O)cc2)C(=O)OCCCCCCCC)cc1` (repeat unit) as the compound, how does the glass transition temperature read?
A: 51.00 °C

Q: Which glass transition temperature does the source give for `*CN1C(=O)c2ccc(C(c3ccc4c(c3)C(=O)N(Cc3nnc(-c5ccc(-c6nnc(*)o6)cc5)o3)C4=O)(C(F)(F)F)C(F)(F)F)cc2C1=O` (repeat unit) here?
A: 214.00 °C

Q: For `*CCN(*)Cc1ccccc1` (repeat unit), which glass transition temperature is on record?
A: -16.00 °C

Q: With `*Oc1cc(OC(=O)c2ccc(OCCC)cc2)c(OC(=O)CCCCCCCCCCCCCCC(*)=O)cc1OC(=O)c1ccc(OCCC)cc1` (repeat unit) as the compound, how does the glass transition temperature read?
A: 18.00 °C

Q: With `*CCCCCCCCCCNC(=O)NCc1ccc(CNC(=O)N*)cc1` (repeat unit) as the compound, how does the glass transition temperature read?
A: 55.00 °C

Q: With `*CCOCCOCCOCCOCCOCCOC(=O)c1cc(OCCCCCCOc2ccc(-c3ccc(OC)cc3)cc2)cc(C(=O)O*)c1` (repeat unit) as the compound, how does the glass transition temperature read?
A: 12.50 °C

Q: With `*CCOCCOC(=O)C(CCCCCCC)C(=O)O*` (repeat unit) as the compound, how does the glass transition temperature read?
A: -58.00 °C

Q: For `*CC(*)C(=O)OCCCCCCCCCOC(=O)c1ccc(OC(=O)c2ccc(C#N)cc2)cc1` (repeat unit), which glass transition temperature is on record?
A: 15.00 °C

Q: For `*Oc1ccc(C(c2ccc(Oc3ccc(C(=O)c4ccc(*)cc4)cc3)cc2)(C(F)(F)F)C(F)(F)F)cc1` (repeat unit), which glass transition temperature is on record?
A: 175.00 °C

Q: Which glass transition temperature does the source give for `*CC(COc1ccc(C(C)(c2ccccc2)c2ccc(O*)cc2)cc1)OC(C)=O` (repeat unit) here?
A: 110.00 °C

Q: Which glass transition temperature does the source give for `*Oc1cc(CCCCCCCCCCCCC)cc(OC(=O)c2cccc(C(*)=O)c2)c1` (repeat unit) here?
A: 25.50 °C

Q: Which glass transition temperature does the source give for `*Oc1ccc(CC(NC(=O)CCc2ccc(OC(=O)CCCCCCC(*)=O)cc2)C(=O)OCC(C)C)cc1` (repeat unit) here?
A: 42.00 °C

Q: For `*c1ccc(Oc2ccc(Oc3ccc(N4C(=O)c5ccc(Oc6ccc(C7(c8ccc(Oc9ccc%10c(c9)C(=O)N(*)C%10=O)cc8)CCC(C(C)(C)C)CC7)cc6)cc5C4=O)cc3)c(C(C)(C)C)c2)cc1` (repeat unit), which glass transition temperature is on record?
A: 233.00 °C

Q: For `*c1cccc(NC(=O)CCCCC(=O)Nc2cccc(S(*)(=O)=O)c2)c1` (repeat unit), which glass transition temperature is on record?
A: 140.00 °C

Q: With `*CC1CCC(COC(C)OC(=O)c2ccc(C(=O)OC(C)O*)c3ccccc23)CC1` (repeat unit) as the compound, how does the glass transition temperature read?
A: 60.00 °C

Q: Which glass transition temperature does the source give for `*CCOCCOC(=O)CCCCC(=O)O*` (repeat unit) here?
A: -51.00 °C

Q: Which glass transition temperature does the source give for `*CCCCCCN(CC(F)(F)C(F)(F)F)C(=O)C(F)(F)C(F)(F)C(F)(F)C(=O)N(*)CC(F)(F)C(F)(F)F` (repeat unit) here?
A: 174.00 °C

Q: Which glass transition temperature does the source give for `*c1cc(C(C)(C)c2ccc(O)cc2)cc(*)c1O` (repeat unit) here?
A: 135.00 °C

Q: Which glass transition temperature does the source give for `*OC(COC(=O)C1CCC(C(*)=O)CC1)COc1ccc(/N=N/c2ccc(C#N)cc2)cc1` (repeat unit) here?
A: 106.00 °C

Q: With `*C1C(=O)N(C2CCCCC2)C(=O)C1*` (repeat unit) as the compound, how does the glass transition temperature read?
A: 232.00 °C

Q: With `*C(=O)c1ccc2c(c1)C(=O)N(c1ccc(N3C(=O)c4ccc(*)cc4C3=O)cc1)C2=O` (repeat unit) as the compound, how does the glass transition temperature read?
A: 325.00 ± 11 °C

Q: With `*c1ccc(-c2sc(-c3ccc(-c4cc(SCCCCCCCC)c(*)s4)cc3)cc2SCCCCCCCC)cc1` (repeat unit) as the compound, how does the glass transition temperature read?
A: -38.80 °C

Q: Which glass transition temperature does the source give for `*c1ccc2c3ccc(-c4ccc(-c5ccc(-c6ccc(*)s6)c6nccnc56)s4)cc3n(C(CCCCCCCC)CCCCCCCC)c2c1` (repeat unit) here?
A: 116.00 °C

Q: For `*O[Si](*)(CCC)c1ccccc1` (repeat unit), which glass transition temperature is on record?
A: 40.60 °C

Q: With `*C([2H])([2H])C(*)(C(=O)OC([2H])([2H])C([2H])([2H])[2H])C([2H])([2H])[2H]` (repeat unit) as the compound, how does the glass transition temperature read?
A: 94.00 °C

Q: Which glass transition temperature does the source give for `*CCCCCCCc1nc2ccc(-c3ccc4nc(*)oc4c3)cc2o1` (repeat unit) here?
A: 85.00 °C

Q: Which glass transition temperature does the source give for `*CCN(CCN1C(=O)c2ccc(C(c3ccc4c(c3)C(=O)N(*)C4=O)(C(F)(F)F)C(F)(F)F)cc2C1=O)c1ccc(/N=N/c2ccc(C3OCCO3)cc2)cc1` (repeat unit) here?
A: 178.00 °C

Source: the PolyMetriX glass transition set
